Structures can show the parent of a compound that is named as a salt.
Target: T1, native human transporter GlyT1 (Homo sapiens, UniProt P48067)
T1 construct: SK-N-MC cells (human neuroepithelial cells) expressing the native human transporter GlyT1; endogenous in cells; host or cells: SK-N-MC (human neuroepithelial cells)
T1 sequence (P48067 1-706): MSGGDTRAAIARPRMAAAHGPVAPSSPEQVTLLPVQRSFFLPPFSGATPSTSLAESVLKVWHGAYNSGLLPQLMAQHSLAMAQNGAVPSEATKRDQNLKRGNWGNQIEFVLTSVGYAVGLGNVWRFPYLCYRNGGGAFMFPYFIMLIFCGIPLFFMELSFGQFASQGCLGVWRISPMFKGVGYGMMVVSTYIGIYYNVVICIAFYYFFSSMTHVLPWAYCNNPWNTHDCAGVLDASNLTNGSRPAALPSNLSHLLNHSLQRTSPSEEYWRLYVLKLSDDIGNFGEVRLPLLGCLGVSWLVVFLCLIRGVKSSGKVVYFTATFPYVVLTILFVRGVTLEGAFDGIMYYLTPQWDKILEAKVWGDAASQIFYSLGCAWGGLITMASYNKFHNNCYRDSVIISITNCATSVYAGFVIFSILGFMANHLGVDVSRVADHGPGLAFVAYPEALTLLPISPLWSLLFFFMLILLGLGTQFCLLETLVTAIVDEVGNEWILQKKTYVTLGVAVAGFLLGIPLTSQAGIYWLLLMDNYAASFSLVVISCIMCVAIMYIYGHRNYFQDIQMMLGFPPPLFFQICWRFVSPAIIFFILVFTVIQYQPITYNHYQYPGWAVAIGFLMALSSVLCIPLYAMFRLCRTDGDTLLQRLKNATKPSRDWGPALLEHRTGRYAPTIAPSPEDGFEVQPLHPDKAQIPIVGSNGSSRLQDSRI
Experiment: Uptake of [14C]glycine in SK-N-MC cells expressing the native human transporter GlyT1
Type: cell-based
Conditions: 10 μM [14C]glycine, 10 min preincubation and 10 min incubation at 37° C., pH 7.4, read-out: IC50, the concentration of the compound which reduces by 50% the specific uptake of glycine
Protocol: Study of glycine transportation in SK-N-MC cells expressing the native human transporter GlyT1.
The uptake of [^14C]glycine is studied in SK-N-MC cells (human neuroepithelial cells) expressing the native human transporter GlyT1 by measuring the radioactivity incorporated in the presence or absence of the test compound. The cells are cultured as a monolayer for 48 hours in plates pretreated with 0.02% fibronectin. On the day of the experiment, the culture medium is removed and the cells are washed with Krebs-HEPES (4-(2-hydroxyethyl)piperazine-1-ethanesulphonic acid) buffer at pH 7.4. After preincubation for 10 minutes at 37° C. in the presence either of buffer (control batch) or of test compound at various concentrations or of 10 mM of glycine (determination of the non-specific uptake), 10 μM of [^14C]glycine (specific activity 112 mCi/mmol) are subsequently added. Incubation is continued for 10 min at 37° C. and the reaction is halted by washing twice with pH 7.4 Krebs-HEPES buffer. The radioactivity incorporated by the cells is then estimated after adding 100 μl of liquid scintillant and stirring for 1 h. Counting is carried out on a Microbeta Tri-Lux™ counter. The effectiveness of the compound is determined by the IC50, the concentration of the compound which reduces by 50% the specific uptake of glycine, defined by the difference in radioactivity incorporated by the control batch and the batch which received the 10 mM glycine.
An IC50 of 80 nM was found for `O=C(NC(c1ccccc1)C1CCCC2CCCN21)c1cccc(C(F)(F)F)c1Cl` (racemic) [Compound 1, trans-threo-2-Chloro-N-[(octahydroindolizin-5-yl)phenylmethyl]-3-trifluoromethyl-benzamide hydrochloride 1:1] in this work.
An IC50 of 23 nM was found for `O=C(N[C@H](c1ccccc1)[C@@H]1CCC[C@H]2CCCN21)c1cccc(C(F)(F)F)c1Cl` (racemic) [Compound 2, trans-erythro-2-chloro-N-[(octahydroindolizin-5-yl)phenylmethyl]-3-trifluoromethyl-benzamide hydrochloride 1:1] in this work.
An IC50 of 3 nM was found for `O=C(NC(c1ccccc1)C1CCC2CCCCN21)c1cccc(C(F)(F)F)c1Cl` (racemic) [Compound 5, trans-threo-2-Chloro-N-[(octahydroindolizin-3-yl)phenylmethyl]-3-trifluoromethyl-benzamide hydrochloride 1.1] in this work.

Tested on: not given
Experiment: not given
Conditions: not given
A melting point of 132 to 134 °C was found for `O=C(NC(c1ccccc1)C1CCCC2CCCN21)c1cccc(C(F)(F)F)c1Cl` (racemic) (as salt: HCl) [Compound 1, trans-threo-2-Chloro-N-[(octahydroindolizin-5-yl)phenylmethyl]-3-trifluoromethyl-benzamide hydrochloride 1:1] in this work.
A melting point of 132 to 134 °C was found for `O=C(N[C@H](c1ccccc1)[C@@H]1CCC[C@H]2CCCN21)c1cccc(C(F)(F)F)c1Cl` (racemic) (as salt: HCl) [Compound 2, trans-erythro-2-chloro-N-[(octahydroindolizin-5-yl)phenylmethyl]-3-trifluoromethyl-benzamide hydrochloride 1:1] in this work.
A melting point of 138 to 139 °C was found for `O=C(NC(c1ccccc1)C1CCC2CCCCN21)c1cccc(C(F)(F)F)c1Cl` (racemic) (as salt: HCl) [Compound 5, trans-threo-2-Chloro-N-[(octahydroindolizin-3-yl)phenylmethyl]-3-trifluoromethyl-benzamide hydrochloride 1.1] in this work.
